This is an account of results in patent US5527832A, “Antiinflammatory and analgesic transdermal gel” (priority 1994, dated 1996).

Data set [1] can be described thus: Gastric ulcer formation (Experiment 4). The data set is classed as in vivo, male Sprague-Dawley rats. Conditions: 10 mg/kg. The protocol: Male Sprague-Dawley rats weighing around 200 g were used as the test animals. […] As a reference, the rats of the control group were administrated ketoprofen orally as a suspension in physiological saline at the dose of 10 mg/kg. Six hours after the administration, the rats were sacrificed and ulcer formation in the stomach was scored as follows: 0; normal, 1; reddened mucosa, 2; one to four small ulcer (smaller than 2 mm in diameter). 3; more than four small ulcer or one large ulcer (larger than 2 mm in diameter), 4; more than one large ulcer. The score of two or higher was regarded as ulcer formation.

The conditions of data set [2]: postdose, oral administration to rats; cited from earlier work.

On to `CC(C(=O)O)c1ccc(-c2ccccc2)c(F)c1` (stereo not shown) [flurbiprofen], for which, in data set [1] (rat, in vivo, po), the Average ulcer score is on record as 2.46 and the “No. of rat ulcer is produced” value was 5/6.
For `CC(C)Cc1ccc(C(C)C(=O)O)cc1` (stereo not shown) [ibuprofen] the same measures were 2.53 and 6/6.
As for `CC(C(=O)O)c1cccc(C(=O)c2ccccc2)c1` (stereo not shown) [ketoprofen], the “Time of maximum concentration of ketoprofen” value in data set [2] was 0.25 to 0.5 h. Also, the “No. of rat ulcer is produced” value in data set [1] (oral, 6 h after administration) is recorded as 6/6. The molecule further yielded an Average ulcer score in data set [1] (oral, 6 h after administration, score 0-4) of 2.91.
